pIC50: −log10 of the molar value. Converted amounts (≈) assume the structure as drawn. Read-outs that look alike come from different tables or passages of the source.
Assays:
[1] = target: T1, full-length beta-Catenin (Uniprot ID P35222) (Homo sapiens, UniProt P35222); assay: Fluorescence polarization IC50 (beta-catenin / 5FAM-TCF4 10-53 competition); type: binding
T1 construct: 10 nM full-length beta-Catenin (Uniprot ID P35222)
T1 sequence (P35222 1-781): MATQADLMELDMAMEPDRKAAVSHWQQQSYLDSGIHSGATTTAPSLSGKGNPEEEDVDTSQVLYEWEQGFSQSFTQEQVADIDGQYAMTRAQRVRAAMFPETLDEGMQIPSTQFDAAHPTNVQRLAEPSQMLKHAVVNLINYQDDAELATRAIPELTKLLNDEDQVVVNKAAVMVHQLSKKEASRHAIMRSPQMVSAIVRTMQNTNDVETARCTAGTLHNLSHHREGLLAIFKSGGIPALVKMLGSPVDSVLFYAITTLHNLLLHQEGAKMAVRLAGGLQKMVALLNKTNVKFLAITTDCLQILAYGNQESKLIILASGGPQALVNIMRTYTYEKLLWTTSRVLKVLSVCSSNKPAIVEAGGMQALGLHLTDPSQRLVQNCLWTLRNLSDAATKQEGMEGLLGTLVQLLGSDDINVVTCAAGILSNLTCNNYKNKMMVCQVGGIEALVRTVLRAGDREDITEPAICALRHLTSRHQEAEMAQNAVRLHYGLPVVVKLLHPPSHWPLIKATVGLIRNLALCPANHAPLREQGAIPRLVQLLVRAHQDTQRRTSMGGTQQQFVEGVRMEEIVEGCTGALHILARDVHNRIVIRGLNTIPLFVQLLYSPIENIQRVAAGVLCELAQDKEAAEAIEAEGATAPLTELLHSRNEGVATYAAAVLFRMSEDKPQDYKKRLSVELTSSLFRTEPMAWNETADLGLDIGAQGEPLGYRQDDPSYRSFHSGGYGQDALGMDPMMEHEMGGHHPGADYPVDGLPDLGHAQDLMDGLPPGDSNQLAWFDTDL

[2] = CHI Log D procedure; type: physicochemical; details: for chromatographic logD: pH 7.4, CHI Log D; for CHI Log D: pH 7.4
[3] = Solubility in PBS; type: physicochemical
Procedure, shortened: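 The PBS solution was ultracentrifuged and the supernatant analyzed by HPLC. Its peak area was divided by that of a 50 μM peptide DMSO reference injection and multiplied by 50 uM to give solubility.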

[4] = fluorescence polarization, read-out: beta-Catenin FP IC50

SMILES	pIC50 [1, 4]	chromatographic logD [2]	Solubility [3] [µM]	pIC50 ([1]; read-out: FP EC50)	CHI Log D [2]	Solubility ([3]; Solubility (uM)) [µM]
CC(=O)N1CCC[C@]12CC=CCCCC1(CCCC=CCCCCCC[C@@](C)(C(=O)N[C@@H](Cc3ccccc3)C(=O)N[C@@H](Cc3csc4ccccc34)C(=O)N[C@@H](Cc3ccco3)C(N)=O)NC(=O)[C@H](CCC(N)=O)NC(=O)[C@H](Cc3ccccc3)NC(=O)[C@H](C)NC(=O)[C@H](C)NC(=O)[C@H](CCC(=O)O)NC(=O)[C@H](CC(=O)O)NC1=O)NC(=O)[C@H](C)NC(=O)[C@H](CC(=O)O)NC2=O (stereo partly drawn) [I-490, Ac-PL3-Asp-Ala-B5-Asp-Glu-Ala-Ala-Phe-Gln-S8-Phe-BztA-2FurA-NH2]	7.06	2.21	50 (≈ 92.5 µg/mL)	–	–	–
CC(=O)N1CCC[C@]12CC=CCCCC1(CCCC=CCCCCCC[C@@](C)(C(=O)N[C@@H](Cc3ccccc3)C(=O)N[C@@H](Cc3csc4ccccc34)C(=O)N[C@@H](CCO)C(N)=O)NC(=O)[C@H](CCC(N)=O)NC(=O)[C@H](Cc3ccccc3)NC(=O)[C@H](C)NC(=O)[C@H](C)NC(=O)[C@H](CCC(=O)O)NC(=O)[C@H](CC(=O)O)NC1=O)NC(=O)[C@H](C)NC(=O)[C@H](CC(=O)O)NC2=O (stereo partly drawn) [I-491, Ac-PL3-Asp-Ala-B5-Asp-Glu-Ala-Ala-Phe-Gln-S8-Phe-BztA-Hse-NH2]	6.82	–	39 (≈ 70.7 µg/mL)	6.82	2.023	–
CC(=O)N1CCC[C@]12CC=CCCCC1(CCCC=CCCCCCC[C@@](C)(C(=O)N[C@@H](Cc3ccccc3)C(=O)N[C@@H](Cc3csc4ccccc34)C(=O)N[C@@H](CCO)C(N)=O)NC(=O)[C@H](CCC(N)=O)NC(=O)[C@H](Cc3ccccc3)NC(=O)[C@H](C)NC(=O)[C@H](C)NC(=O)[C@H](CCC(=O)O)NC(=O)[C@H](CC(=O)O)NC1=O)NC(=O)[C@H](C)NC(=O)[C@H](CC(=O)O)NC2=O (stereo partly drawn) [I-492, Ac-PL3-Asp-Ala-B5-Asp-Glu-Ala-Ala-Phe-Gln-S8-Phe-BztA-Hse-NH2]	7.28	–	49 (≈ 88.9 µg/mL)	7.28	2.052	–
CC(=O)N1CCC[C@]12CC=CCCCC1(CCCC=CCCCCCC[C@@](C)(C(=O)N[C@@H](Cc3ccccc3)C(=O)N[C@@H](Cc3csc4ccccc34)C(=O)N[C@H](CO)C(N)=O)NC(=O)[C@H](CCC(N)=O)NC(=O)[C@H](Cc3ccccc3)NC(=O)[C@H](C)NC(=O)[C@H](C)NC(=O)[C@H](CCC(=O)O)NC(=O)[C@H](CC(=O)O)NC1=O)NC(=O)[C@H](C)NC(=O)[C@H](CC(=O)O)NC2=O (stereo partly drawn) [I-493, Ac-PL3-Asp-Ala-B5-Asp-Glu-Ala-Ala-Phe-Gln-S8-Phe-BztA-DSer-NH2]	7.06	2.2	50 (≈ 90 µg/mL)	–	–	–
CC(=O)N1CCC[C@]12CC=CCCCC1(CCCC=CCCCCCC[C@@](C)(C(=O)N[C@@H](Cc3ccccc3)C(=O)N[C@@H](Cc3csc4ccccc34)C(=O)N[C@H](CCC(N)=O)C(N)=O)NC(=O)[C@H](CCC(N)=O)NC(=O)[C@H](Cc3ccccc3)NC(=O)[C@H](C)NC(=O)[C@H](C)NC(=O)[C@H](CCC(=O)O)NC(=O)[C@H](CC(=O)O)NC1=O)NC(=O)[C@H](C)NC(=O)[C@H](CC(=O)O)NC2=O (stereo partly drawn) [I-494, Ac-PL3-Asp-Ala-B5-Asp-Glu-Ala-Ala-Phe-Gln-S8-Phe-BztA-DGIn-NH2]	7.09	2.05	–	–	–	44 (≈ 81 µg/mL)
CC(=O)N1CCC[C@]12CC=CCCCC1(CCCC=CCCCCCC[C@@](C)(C(=O)N[C@@H](Cc3ccccc3)C(=O)N[C@@H](Cc3csc4ccccc34)C(=O)N[C@@H](Cc3c[nH]cn3)C(N)=O)NC(=O)[C@H](CCC(N)=O)NC(=O)[C@H](Cc3ccccc3)NC(=O)[C@H](C)NC(=O)[C@H](C)NC(=O)[C@H](CN(CC(=O)O)CC(F)(F)F)NC(=O)[C@H](CC(=O)O)NC1=O)NC(=O)[C@H](C)NC(=O)[C@H](CC(=O)O)NC2=O (stereo partly drawn) [I-499, Ac-PL3-Asp-Ala-B5-Asp-TfeGA-Ala-Ala-Phe-Gln-S8-Phe-BztA-His-NH2]	6.91	2.17	–	–	–	48 (≈ 93.5 µg/mL)
CC[C@H](C)[C@@H]1NC(=O)[C@H](CC(=O)O)NC(=O)[C@]2(CC=CCCCC3(CCCC=CCCCCCC[C@@](C)(C(=O)N[C@@H](Cc4ccccc4)C(=O)N[C@@H](Cc4csc5ccccc45)C(=O)N[C@@H](Cc4c[nH]cn4)C(N)=O)NC(=O)[C@H](CCC(N)=O)NC(=O)[C@H](Cc4ccccc4)NC(=O)[C@H](C)NC(=O)[C@H](C)NC(=O)[C@H](CN(CC(=O)O)CC(F)(F)F)NC(=O)[C@H](CC(=O)O)NC3=O)NC1=O)CCCN2C(C)=O (stereo partly drawn) [I-500, Ac-PL3-Asp-Ile-B5-Asp-TfeGA-Ala-Ala-Phe-Gln-S8-Phe-BztA-His-NH2]	6.75	2.63	–	–	–	28 (≈ 55.7 µg/mL)
CC(=O)N1CCC[C@]12CC=CCCCC1(CCCC=CCCCCCC[C@@](C)(C(=O)N[C@@H](Cc3ccccc3)C(=O)N[C@@H](Cc3csc4ccccc34)C(=O)N[C@@H](CCC(N)=O)C(N)=O)NC(=O)[C@H](CCC(N)=O)NC(=O)[C@H](Cc3ccccc3)NC(=O)[C@H](C)NC(=O)[C@H](C)NC(=O)[C@H](CCC(=O)O)NC(=O)[C@H](CC(=O)O)NC1=O)NC(=O)[C@H](CC(F)(F)F)NC(=O)[C@H](CC(=O)O)NC2=O (stereo partly drawn) [I-501, Ac-PL3-Asp-F3CA-B5-Asp-Glu-Ala-Ala-Phe-Gln-S8-Phe-BztA-Gln-NH2]	7.03	–	49 (≈ 93.5 µg/mL)	7.03	2.138	–
CC(=O)N1CCC[C@]12CC=CCCCC1(CCCC=CCCCCCC[C@@](C)(C(=O)N[C@@H](Cc3ccccc3)C(=O)N[C@@H](Cc3csc4ccccc34)C(=O)N[C@@H](CCC(N)=O)C(N)=O)NC(=O)[C@H](CCC(N)=O)NC(=O)[C@H](Cc3ccccc3)NC(=O)[C@H](C)NC(=O)[C@H](C)NC(=O)[C@H](CCC(=O)O)NC(=O)[C@H](CC(=O)O)NC1=O)NC(=O)[C@H](CC(F)(F)F)NC(=O)[C@H](CC(=O)O)NC2=O (stereo partly drawn) [I-502, Ac-PL3-Asp-F3CA-B5-Asp-Glu-Ala-Ala-Phe-Gln-S8-Phe-BztA-Gln-NH2]	7.26	–	50 (≈ 95.5 µg/mL)	7.26	2.171	–
CC(=O)N1CCC[C@]12CC=CCCCC1(CCCC=CCCCCCC[C@@](C)(C(=O)N[C@@H](Cc3ccccc3)C(=O)N[C@@H](Cc3csc4ccccc34)C(=O)N[C@@H](CCC(N)=O)C(N)=O)NC(=O)[C@H](CCC(N)=O)NC(=O)[C@H](Cc3ccccc3)NC(=O)[C@H](C)NC(=O)[C@H](C)NC(=O)[C@H](CCC(=O)O)NC(=O)[C@H](CC(=O)O)NC1=O)NC(=O)[C@H](CC(F)F)NC(=O)[C@H](CC(=O)O)NC2=O (stereo partly drawn) [I-503, Ac-PL3-Asp-HF2CA-B5-Asp-Glu-Ala-Ala-Phe-Gln-S8-Phe-BztA-Gln-NH2]	7.08	2.09	–	–	–	33 (≈ 62.4 µg/mL)
CC(=O)N1CCC[C@]12CC=CCCCC1(CCCC=CCCCCCC[C@@](C)(C(=O)N[C@@H](Cc3ccccc3)C(=O)N[C@@H](Cc3csc4ccccc34)C(=O)N[C@@H](Cc3c[nH]cn3)C(N)=O)NC(=O)[C@H](CCC(N)=O)NC(=O)[C@H](Cc3ccccc3)NC(=O)[C@H](C)NC(=O)[C@H](C)NC(=O)[C@H](CCC(=O)O)NC(=O)[C@H](CC(=O)O)NC1=O)NC(=O)[C@H](CC(F)(F)F)NC(=O)[C@H](CC(=O)O)NC2=O (stereo partly drawn) [I-504, Ac-PL3-Asp-F3CA-B5-Asp-Glu-Ala-Ala-Phe-Gln-S8-Phe-BztA-His-NH2]	7.19	2.22	–	–	–	18 (≈ 34.5 µg/mL)
CC(=O)N1CCC[C@]12CC=CCCCC1(CCCC=CCCCCCC[C@@](C)(C(=O)N[C@@H](Cc3ccccc3)C(=O)N[C@@H](Cc3csc4ccccc34)C(=O)N[C@H](C(N)=O)[C@@H](C)O)NC(=O)[C@H](CCC(N)=O)NC(=O)[C@H](Cc3ccccc3)NC(=O)[C@H](C)NC(=O)[C@H](C)NC(=O)[C@H](CCC(=O)O)NC(=O)[C@H](CC(=O)O)NC1=O)NC(=O)[C@H](C)NC(=O)[C@H](CC(=O)O)NC2=O (stereo partly drawn) [I-507, Ac-PL3-Asp-Ala-B5-Asp-Glu-Ala-Ala-Phe-Gln-S8-Phe-BztA-Thr-NH2]	6.72	–	47 (≈ 85.3 µg/mL)	6.72	2.079	–
CC(=O)N1CCC[C@]12CC=CCCCC1(CCCC=CCCCCCC[C@@](C)(C(=O)N[C@@H](Cc3ccccc3)C(=O)N[C@@H](Cc3csc4ccccc34)C(=O)N[C@H](C(N)=O)[C@@H](C)O)NC(=O)[C@H](CCC(N)=O)NC(=O)[C@H](Cc3ccccc3)NC(=O)[C@H](C)NC(=O)[C@H](C)NC(=O)[C@H](CCC(=O)O)NC(=O)[C@H](CC(=O)O)NC1=O)NC(=O)[C@H](C)NC(=O)[C@H](CC(=O)O)NC2=O (stereo partly drawn) [I-508, Ac-PL3-Asp-Ala-B5-Asp-Glu-Ala-Ala-Phe-Gln-S8-Phe-BztA-Thr-NH2]	7.14	–	50 (≈ 90.7 µg/mL)	7.14	2.126	–
